Measured values from the supplement of paper PMC13380429.
± gives the standard deviation of the averaged measurements.

Columns and labels:
Conditions in all cases: 72 h
Caco-2 [1] = test: cell viability relative to DMSO; higher = less toxic
HepG2 [2] = test: as above
U2OS [3] = test: as above
Calu-3 [4] = test: as above
Vero E6 [5] = test: as above
Caco-2 [6] = test: relative viability EC50 (midpoint between 100% and the lowest measured viability); higher = less toxic
HepG2 [7] = test: as above
U2OS [8] = test: as above
Calu-3 [9] = test: as above
Vero E6 [10] = test: as above
Caco-2 [11] = test: drug sensitivity score (DSS) for viability; higher = more toxic; extreme values may be limits of the assay
HepG2 [12] = test: as above
U2OS [13] = test: as above
Calu-3 [14] = test: as above
Vero E6 [15] = test: as above

SMILES	cell viability (Caco-2 [1]; 1 nM) [%]	cell viability (Caco-2 [1]; 10 nM) [%]	cell viability (Caco-2 [1]; 100 nM) [%]	cell viability (Caco-2 [1]; 1000 nM) [%]	cell viability (Caco-2 [1]; 10000 nM) [%]	cell viability (HepG2 [2]; 1 nM) [%]	cell viability (HepG2 [2]; 10 nM) [%]	cell viability (HepG2 [2]; 100 nM) [%]	cell viability (HepG2 [2]; 1000 nM) [%]	cell viability (HepG2 [2]; 10000 nM) [%]	cell viability (U2OS [3]; 1 nM) [%]	cell viability (U2OS [3]; 10 nM) [%]	cell viability (U2OS [3]; 100 nM) [%]	cell viability (U2OS [3]; 1000 nM) [%]	cell viability (U2OS [3]; 10000 nM) [%]	cell viability (Calu-3 [4]; 1 nM) [%]	cell viability (Calu-3 [4]; 10 nM) [%]	cell viability (Calu-3 [4]; 100 nM) [%]	cell viability (Calu-3 [4]; 1000 nM) [%]	cell viability (Calu-3 [4]; 10000 nM) [%]	cell viability (Vero E6 [5]; 1 nM) [%]	cell viability (Vero E6 [5]; 10 nM) [%]	cell viability (Vero E6 [5]; 100 nM) [%]	cell viability (Vero E6 [5]; 1000 nM) [%]	cell viability (Vero E6 [5]; 10000 nM) [%]	relative viability EC50 (Caco-2 [6]) [µM]	relative viability EC50 (HepG2 [7]) [µM]	relative viability EC50 (U2OS [8]) [µM]	relative viability EC50 (Calu-3 [9]) [µM]	relative viability EC50 (Vero E6 [10]) [µM]	drug sensitivity score (Caco-2 [11])	drug sensitivity score (HepG2 [12])	drug sensitivity score (U2OS [13])	drug sensitivity score (Calu-3 [14])	drug sensitivity score (Vero E6 [15])
C=C[C@@]1(C)CC(=O)[C@]2(O)[C@@]3(C)[C@@H](O)CCC(C)(C)[C@@H]3[C@H](O)[C@H](OC(C)=O)[C@@]2(C)O1 [colforsin]	97.9 ± 2.7	99.3 ± 1.3	100 ± 3.5	109 ± 6.7	118 ± 10	110 ± 8.1	106 ± 3.4	101 ± 3.2	96.4 ± 4.8	99.2 ± 3.2	101 ± 1.1	101 ± 5	95.9 ± 0.28	100 ± 1.4	96.65 ± 0.64	106 ± 14	109 ± 11	103 ± 3	106 ± 2.1	97.5 ± 7.2	97.7 ± 6.5	101 ± 14	103 ± 4.5	89.9 ± 3.5	85.7 ± 4.3	> 10	> 10	> 10	> 10	> 10	0	0	0	0	0.4 ± 0.28
N#CCC(=O)NN [cyacetacide]	98.2	102	100	95.6	97.8	95.7	91.9	97	97.4	93.4	95.5	103	96	94	102	84	103	96.3	95.7	108	106	98.6	102	108	102	> 10	> 10	> 10	> 10	> 10	0	0	0	0	0
CN1CCN(C(c2ccccc2)c2ccccc2)CC1 [cyclizine]	95.7	101	99.9	94.9	103	94.7	99.1	103	104	97.6	105	94	101	95.6	97.5	104	98.9	85.8	102	99.9	97.7	96.3	93.7	96	102	> 10	> 10	> 10	> 10	> 10	0	0	0	0	0
CC(C)(C)OC(=O)N[C@H]1CCCCC/C=C\[C@@H]2C[C@@]2(C(=O)NS(=O)(=O)C2CC2)NC(=O)[C@@H]2C[C@@H](OC(=O)N3Cc4cccc(F)c4C3)CN2C1=O [danoprevir]	98.1	98.5	98.4	101	83	109	104	94.2	92	95.1	104	101	98.9	99.4	98.2	107	103	85.1	107	102	106	98.8	98.6	103	103	> 10	> 10	> 10	> 10	> 10	0.3	0	0	0	0
C[C@H](CCC(=O)O)[C@H]1CC[C@H]2[C@@H]3CC[C@@H]4C[C@H](O)CC[C@]4(C)[C@H]3C[C@H](O)[C@]12C [deoxycholic-acid]	102	97.5	98.5	105	90	105	112	90.9	102	97.5	96.8	99.2	98.7	99.8	98.2	103	93.9	103	102	102	99.5	103	102	106	101	> 10	> 10	> 10	> 10	> 10	0	0	0	0	0
C[C@@H](CN1CC(=O)NC(=O)C1)N1CC(=O)NC(=O)C1 [dexrazoxane]	89.3	103	90.4	105	90.3	93.9	106	98.2	92.2	100	96.9	109	96.7	102	98.6	104	92.2	95.1	96.9	101	105	101	103	93.8	99.7	> 10	> 10	> 10	> 10	> 10	0	0	0	0	0
O[C@H]([C@H](O)[C@@H]1CO1)[C@H]1CO1 [dianhydrogalactitol]	97.4	95.8	101	104	95.7	99.4	101	104	90.8	91.1	99.1	104	97.2	100	100	103	107	99.3	95.4	94.2	97.6	96.9	93.2	97.2	99.9	> 10	> 10	> 10	> 10	> 10	0	0	0	0	0
